Experimental data reported in patent publication US20130224110A1, “USE OF ADENOSINE RECEPTOR SIGNALING TO MODULATE PERMEABILITY OF BLOOD-BRAIN BARRIER” (CORNELL UNIVERSITY, priority 2010, published 2013).

Legend:
[1] = system: EAE; assay: EAE induction and scoring (MOG35-55/CFA/PTX); type: in vivo, mice; conditions: wild type mice, 2 mg/kg (1 mg/kg i.p. and 1 mg/kg s.c.) 1 day prior to EAE induction and daily for 30 days, vs DMSO alone
From the text: Cd73^−/− mice have been previously described (Thompson et al., “Crucial Role for Ecto-5′-Nucleotidase (CD73) in Vascular Leakage During Hypoxia,” J. Exp. Med. 200:1395-1405 (2004), which is hereby incorporated by reference in its entirety) and have been backcrossed to C57BL/6 for 14 generations. Cd73^−/− mice have no overt susceptibility to infection and appear normal based on the size and cellular composition of their lymphoid organs and their T and B cell responses in in vivo and in vitro assays (Thompson et al., “Crucial Role for Ecto-5′-Nucleotidase (CD73) in Vascular Leakage During Hypoxia,” J. Exp. Med. 200:1395-1405 (2004), which is hereby incorporated by reference in its entirety). C57BL/6 and tcrα^−/− mice on the C57BL/6 background were purchased from The Jackson Laboratories. Mice were bred and housed under specific pathogen-free conditions at Cornell University or the University of Turku. For adenosine receptor blockade experiments, mice were given drinking water supplemented with 0.6 g/L of caffeine (Sigma) or 2 mg/kg SCH58261 (1 mg/kg s.c. and 1 mg/kg i.p.) in DMSO (45% vol. in PBS) or 45% DMSO alone starting 1 day before EAE induction and continuing throughout the experiment. All procedures performed on mice were approved by the relevant animal review committee.
EAE was induced by subjecting mice to the myelin oligodendrocyte glycoprotein (“MOG”) EAE-inducing regimen as described in Swanborg, “Experimental Autoimmune Encephalomyelitis in Rodents as a Model for Human Demyelinating Disease,” Clin. Immunol. Immunopathol. 77:4-13 (1995) and Bynoe et al., “Epicutaneous Immunization with Autoantigenic Peptides Induces T Suppressor Cells that Prevent Experimental Allergic Encephalomyelitis,” Immunity 19:317-328 (2003), which are hereby incorporated by reference in their entirety. […] Mice were scored daily for EAE based on disease symptom severity; 0=no disease, 0.5-1=weak/limp tail, 2=limp tail and partial hind limb paralysis, 3=total hind limb paralysis, 4=both hind limb and fore limb paralysis, 5=death. […]
As CD73 catalyzes the breakdown of AMP to adenosine and ARs are expressed in the CNS (Tsutsui et al., “A1 Adenosine Receptor Upregulation and Activation Attenuates Neuroinflammation and Demyelination in a Model of Multiple Sclerosis,” J. Neurosci. 24:1521-1529 (2004)); Rosi et al., The Influence of Brain Inflammation Upon Neuronal Adenosine A2B Receptors,” J. Neurochem. 86:220-227 (2003), which are hereby incorporated by reference in their entirety), it was next determined if AR signaling is important during EAE progression. […] Since CD73 is highly expressed on the choroid plexus (FIG. 6C), it was next determined if ARs are also expressed on the choroid plexus. […]

[2] = system: blood brain barrier; assay: Evans Blue dye extravasation across the blood brain barrier in mice immunized for EAE; type: in vivo; conditions: WT EAE mice, 100 μl 0.01 nM on days 1, 3, 5, 7, 9; dye on day 10
Description: In order to determine if activation of adenosine receptors would induce extravazation of Evans Blue dye across the blood brain barrier (BBB), mice were first treated on day one with NECA, a non-selective adenosine receptor agonist (n=2, 100 μl 0.01 nM); and, PBS as a vehicle control (n=2, 100 μl). On day 2 mice were then immunized with CFA-MOG35-55 and pertussis to induce EAE. Then NECA or PBS was administered every other day on day 3, day 5, day 7 and day 9. On day 10, mice were injected intravenously with 200 μl 1% Evans Blue dye ([…] total dye injected). Six hours after administration of Evans Blue, mice were anesthetized with a ketamine/xylazine mix and perfused via the left ventricle with ice cold PBS. Brains were harvested and homogenized in n,n-dimethylformamide (DMF) at 5 μl/mg (v:w). Tissue was incubated for 72 hours at room temperature in DMF to extract the dye. Following extraction, the tissue/solvent mixture was centrifuged at 500×g for 30 minutes and 100 μl of supernatant was read on a BioTex spectrophotometer at 620 nm.

SMILES	EAE development [1]	BBB permeability to Evans Blue dye [2]
Nc1nc2c(cnn2CCc2ccccc2)c2nc(-c3ccco3)nn12 [SCH58261, 2-(2-Furanyl)-7-(2-phenylethyl)-7H-pyrazolo[4,3-e][1,2,4]triazolo[1,5-c]pyrimidin-5-amine]	dramatically protected against EAE development	
CCNC(=O)[C@H]1O[C@@H](n2cnc3c(N)ncnc32)[C@H](O)[C@@H]1O [NECA, 5′-N-ethylcarboxamido adenosine]		increase in BBB permeability over PBS control EAE mice
